This is an account of results in patent US6287813A, “Antibiotic-based gene regulation system” (Cistronics Cell Technology GmbH, priority 1999, dated 2001).

The structures appear in SMILES notation.

The target of one series is T1, Pip/PPTR (Streptomyces coelicolor, UniProt Q9ADN3).
T1 construct: gel retardation with ptr promoter DNA (PPTR) of S. pristinaespiralis
T1 sequence (Q9ADN3 1-252): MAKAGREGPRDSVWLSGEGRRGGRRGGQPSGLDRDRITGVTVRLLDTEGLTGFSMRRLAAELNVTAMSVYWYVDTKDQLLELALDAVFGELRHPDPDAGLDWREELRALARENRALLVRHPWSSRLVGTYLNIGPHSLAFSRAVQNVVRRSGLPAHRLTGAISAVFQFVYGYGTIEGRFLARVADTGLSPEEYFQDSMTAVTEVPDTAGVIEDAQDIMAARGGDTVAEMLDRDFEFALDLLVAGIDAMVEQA
The series is described as follows: Gel retardation assay of Pip/PPTR interaction. It counts as binding. The settings on record: Pip 0.2 pmol titrated with 50 pmol to 0.01 pmol antibiotic. An excerpt: FIG. 1: Gel retardation assay showing Pip/PPTR interaction. PPTR of S. pristinaespiralis contains 3 dyad symmetrical binding sites (lane A; PPTR in the absence of Pip) all of which are saturated at relatively large amounts of purified Pip (0.4 pmol; […]) resulting in a single shifted band. Smaller amounts of Pip (0.02 pmol) presented an intermediate situation in which all possible permutations of site occupancy are represented in three distinct retarded bands (lane C). Pip (0.2 pmol lanes D-M) was titrated with a range of PI from 50 pmol to 0.01 pmol (lanes D-H; D: 50 pmol; E: 10 pmol; F: 1 pmol; G: 0.1 pmol; H: 0.01 pmol). […]
Chinese hamster ovary cells (CHO-K1, ATCC: CCL 61), Baby hamster kidney cells (BHK-21, ATCC: CRL-8544), and HeLa cells (ATCC: CRL-7923) as well as stable cell lines CHO-PIT1, CHO-PIT2, CHO-TWIN195, CHO-TWIN1108 and CHO-PIT1-SEAP were cultured as described before (Fussenegger et al., 1998, Nat. Biotechnol. 16,468-472) in the presence of appropriate antibiotics: G418 400 μg/ml; zeocin 100 μg/ml. […] Transient transfected cells were routinely analyzed after 48 h for GFP or SEAP expression using fluorescence microscopy and p-nitrophenolphosphate-based light absorbance timecourse, respectively, as described before (Fussenegger et al., 1998, Nat. Biotechnol. 16, 468-472; Berger et al., 1988, Gene 66, 1-10 b). […]

Series [1] addresses T2, PIT/PPIR system (Streptomyces coelicolor, UniProt Q9ADN3).
T2 construct: pMF156/pTWIN in CHO cells, PPIR-SEAP or GFP reporter
T2 sequence (Q9ADN3 1-252): T1 sequence (Q9ADN3 1-252)
The series is described as follows: SEAP reporter assay, CHO-TWIN clones transfected with pMF172 (PPIR-SEAP). It counts as cell-based. The following applies: for activity at 2 µg/mL / activity at 10 µg/mL: 48 h, CHO-TWIN1108 + pMF172, crossregulation, read-out: SEAP Production (%); for activity at 10 µg/mL: 10 μg/ml. From the text:
(§1) pTWIN contains both PIT and tTA in a PSV40 -driven dicistronic configuration. For construction of pTWIN, PIT was first transferred from pMF156 as an EcoRI/HindIII fragment to the corresponding sites of pSBC-1 (EcoRI/HindIII; resulting in pMF167) before the PIT expression unit could be fused to the tTA expression unit contained on pSBC2-tTA (Fussenegger et al., 1997, supra) via SspI/NotI sites. Thus, pTWIN contains the dicistronic PSV40 -PIT-IRES-tTA-pA expression cassette.
(§2) Chinese hamster ovary cells (CHO-K1, ATCC: CCL 61), Baby hamster kidney cells (BHK-21, ATCC: CRL-8544), and HeLa cells (ATCC: CRL-7923) as well as stable cell lines CHO-PIT1, CHO-PIT2, CHO-TWIN195, CHO-TWIN1108 and CHO-PIT1-SEAP were cultured as described before (Fussenegger et al., 1998, Nat. Biotechnol. 16,468-472) in the presence of appropriate antibiotics: G418 400 μg/ml; zeocin 100 μg/ml. Optimized CaPO4 protocols were used for high efficiency transient transfection of all cell lines (id). Transient transfected cells were routinely analyzed after 48 h for GFP or SEAP expression using fluorescence microscopy and p-nitrophenolphosphate-based light absorbance timecourse, respectively, as described before (Fussenegger et al., 1998, Nat. Biotechnol. 16, 468-472; Berger et al., 1988, Gene 66, 1-10 b). For construction of stable CHO-PIT and CHO-TWIN cell lines, CHO-K1 was cotransfected either with pMF156 or pTWIN1 and pSV2neo carrying the G418 resistance gene. CHO-PIT1-SEAP was constructed by cotransfection of pMF172 and pZeoSV2 (Invitrogen). For assessment of dose-response characteristics of PPIR -regulated gene expression, CHO-PIT1-SEAP were cultured at cell densities of 150,000/ml for 48 at various PI concentrations. The mixed populations were cloned using FACS-mediated single-cell-sorting (FACStar^Plus; Beckton Dickinson). Gel retardation assay were performed as described (Salah-Bey et al., 1995, supra) using Pip purified from an overproducing strain of E. coli. Pip (0.02 pmol) was titrated with a range of antibiotic concentrations in a reaction volume of 20 μl. Protein solutions were pre-incubated at room temperature for 15 min. in the absence or presence of PI or its derivative quinupristin in a buffer containing 10 mM Tris (pH 7.8), 10 mM MgCl2, 300 mM NaCl, 2 mM DTT and 10% glycerol. An EcoRI-HindII PPTR fragment (0.02 pmol) containing three Pip binding sites (radiolabelled using α-^32 P)dATP was added and incubated for 15 min. To minimize nonspecific protein binding and increase protein stability, 2 μg of poly dIdC and 20 μg BSA were included in the incubation mix. Protein-DNA complexes were separated on 5% polyacrylamide,TBE gels and visualized by autoradiography.
(§3) CHO-TWIN195 and CHO-TWIN1108 were transfected under identical conditions with the isogenic plasmids containing the SEAP gene under control of the tTA-activated promoter PhCMV*-1 (pMF111) or the PIT-activated promoter PPIR (pMF172). Transfected cells were grown for 48 h in the presence or absence of either antibiotic prior to assay of SEAP activity.
(§4) Table 6: Comparison of the regulation performance of streptogramin- (PI and virginiamycin; VIR) and tetracycline-based gene regulation systems. The two cell clones CHO-TWIN195 and CHO-TWIN1108 containing both pristinamycin- and tetracycline-dependent transactivators were transfected with either the streptogramin-responsive or the TET-responsive SEAP reporter plasmids pMF172 (PPIR -SEAP) and pMF111 (PhCMV*-1 -SEAP), respectively, and the relative SEAP production was assessed. SEAP production values are normalized by SEAP activities under the antibiotic-free, active promoter conditions as follows: pMF172 in CHO-TWIN195:1.7 mU/ml; in CHO-TWIN1108 : 1.8 mU/ml. pMF111 in CHO-TWIN195 : 18.6 mU/ml; in CHO-TWIN1108 : 19.2 mU/ml.
(§5) Table 7: Compatibility of the streptogramin- and tetracycline-based gene regulation systems. Crossregulation of pristinamycin (PI) and the tetracyclines doxycycline (DOX) and tetracycline (TET). […]
(In general: Reporter assays use an easily measured gene product as a stand-in for the process of interest.)

The target of series [2] is T2, PIT/PPIR system. The series is described as follows: SEAP reporter assay, CHO-K1 cotransfected with pMF156 (PIT) and pMF172 (PPIR-SEAP). It counts as cell-based. As for the experimental part: PIT, the fusion protein of Pip and the VP16 C-terminal transactivation domain of Herpes simplex (Triezenberg et al., 1988, Genes Dev. 2, 718-729) was constructed by amplifying the S. coelicolor Pip from pGemT::Epip4 with oligos:
as §2
Five different sources of pristinamycin were used: The two therapeutic forms Pyostacin™ and Synercid™, pristinamycin discs, and the single compounds pristinamycin I (PI) and pristinamycin II (PII). Pyostacin™ pills (500 mg) were ground in a mortar and solubilized in DMSO or water at a stock concentration of 50 mg/ml. Synercid™ (RP 59500; Lot Nr. CB06253) was provided by Aventis in injection-ready vials containing 500 mg lyophilized antibiotic which was reconstituted in 5 ml of 5% glucose solution and frozen at -20° C. Individual pristinamycin compounds PI and PII (identical to virginiamycin M1 (VM1); Sigma ref. V2753) were solubilized in DMSO at a concentration of 50 mg/ml and kept at -20° C. Antibiotic discs containing 15 μg pristinamycin or virginiamycin (bioMerieux, ref. 54552; bioMerieux, ref. 54612) were soaked in 1 ml cell culture medium at 4i C for up to 24 h. […] The concentration of individual streptogramin components was calculated based on their fixed 70:30 ratio (w/w; PII/VM1 /dalfopristin: PI/VS1 /quinupristin). […]

The target in series [3] is T3, TET-responsive system (tTA/PhCMV*-1) (Escherichia coli, UniProt P04483).
T3 construct: expressed in transfected cells; host or cells: CHO-K1 clones CHO-TWIN195 and CHO-TWIN1108 (pTWIN1)
The series can be described thus: SEAP reporter assay, CHO-TWIN clones transfected with pMF111 (PhCMV*-1-SEAP). It counts as cell-based. The following applies: for SEAP Production (%): 48 h, no inducer = 100.
From the text: as §1, §2, §3, §4, §5

T3 sequence (P04483 whole entry, added parts left off): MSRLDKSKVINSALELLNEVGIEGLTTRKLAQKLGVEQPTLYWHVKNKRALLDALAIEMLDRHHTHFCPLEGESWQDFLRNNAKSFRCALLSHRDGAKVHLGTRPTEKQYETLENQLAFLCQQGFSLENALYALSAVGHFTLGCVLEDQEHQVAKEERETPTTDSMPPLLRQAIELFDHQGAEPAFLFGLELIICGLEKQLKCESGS

On to `CC[C@H]1NC(=O)[C@@H](NC(=O)c2ncccc2O)[C@@H](C)OC(=O)[C@H](c2ccccc2)NC(=O)[C@@H]2CC(=O)[C@H](CS[C@@H]3CN4CCC3CC4)CN2C(=O)[C@H](Cc2ccc(N(C)C)cc2)N(C)C(=O)[C@@H]2CCCN2C1=O` (stereo in doubt) [quinupristin], for which, at Pip/PPTR, the “Release of Pip from PPTR” value is on record as “only partial release”.

Consider `C[C@H]1c2cccc(O)c2C(O)=C2C(=O)[C@]3(O)C(O)=C(C(N)=O)C(=O)[C@@H](N(C)C)[C@@H]3[C@@H](O)[C@@H]21` [DOX, doxycycline], for which, on PIT/PPIR system [1] (2 μg/ml), the activity at 2 µg/mL came out at 77 ± 6.9%. Further, the activity at 10 µg/mL on PIT/PPIR system [1] came to 50.5 ± 7.9%.

For `CC1=CC(O)CC(=O)Cc2nc(co2)C(=O)N2CCC=C2C(=O)OC(C(C)C)C(C)C=CC(=O)NCC=C1` (stereo not drawn) [PII, pristinamycin II], the “Downregulation of PIT/PPIR-mediated SEAP expression” value at PIT/PPIR system [2] (CHO-K1, 2 μg/ml) is given as “did not display any significant repression activity”. Further, on PIT/PPIR system [2] (CHO-K1, inducer 2 μg/ml, assayed 48 hr later, no inducer = 100, read-out: SEAP Production (%)), the activity at 2 µg/mL is 96.3 ± 3.2%.

`CN(C)[C@@H]1C(=O)C(C(N)=O)=C(O)[C@@]2(O)C(=O)C3=C(O)c4c(O)cccc4[C@@](C)(O)[C@H]3C[C@@H]12` [TET, tetracycline]: the inhibition at 2 µg/mL on PIT/PPIR system [1] (2 μg/ml, read-out: Repressive effect on the PIT/PPIR system) is 17%. Moreover, the activity at 2 µg/mL on PIT/PPIR system [1] (2 μg/ml) was 87.7 ± 1.76%. For the same molecule, the activity at 10 µg/mL at PIT/PPIR system [1] amounted to 57.5 ± 5%. For the same molecule, in series [3] (CHO-TWIN195 + pMF111), the “Induction factor (IF; ratio of maximal expression level to antibiotic-repressed expression level)” value is 12. The entries for the “SEAP Production (%)” value in series [3] (CHO-TWIN195 + pMF111) and in series [3] (CHO-TWIN1108 + pMF111) were 8.57 ± 0.37% and 7.56 ± 0.01%, respectively. Also, the “Induction factor (fold downregulation of SEAP)” value in series [3] (CHO-TWIN1108 + pMF111, 2880 min) was determined as 13 fold.
